Reference: paper PMC6680430, “Quantitative Prediction of Human Pharmacokinetics and Pharmacodynamics of CKD519, a Potent Inhibitor of Cholesteryl Ester Transfer Protein (CETP)” (Pharmaceutics, 2019)

What was measured:
[1] = overall (interspecies) PK model with allometric relationships; type: in vivo, hamster, rat, monkey; details: for θ3 Coefficient for Vc: Vc = θ3 × WT^θ4 (θ4 fixed 1); for θ7 Coefficient for Vp: Vp = θ7 × WT^θ8 (θ8 fixed 1)
From the text: (§1) The volume parameters (Vc, Vp) estimated from the PK models for three different species were correlated through simple allometric scaling (=Body weight-dependent allometry) in the PK model fitted to the overall data from all species. This method is based on the power–law function, which can be represented as follows:Y = a × BW^b,(2) where Y represents the PK parameter of interest from each animal; BW represents the average body weight of each species from the relevant in vivo studies; and a and b are the allometric coefficient and exponent of the equation, respectively.
(§2) For the allometric scaling of the clearance parameters (CL, Q) in the same model, physiological parameters such as brain weight (BrW) or maximum lifespan potential (MLP) of each species were incorporated if necessary. To address the uncertainty, two allometric relationships were selected as the final models, and two sets of human PK parameters were predicted: one from the allometry of best fit and the other from the most conventional simple allometry. The appropriateness of the extrapolated human PK parameter values was assessed by comparing them with those of the comparator. Since allometric scaling is not generally recommended for the absorption parameter, human absorption parameters were determined by the final estimates from the overall PK model instead of the allometric method.
The final allometric relationship used in the overall PK model is as follows:Parameter value in each species = a × BW^b (for volume parameters, Vc and Vp),(9) Parameter value in each species = a × BW^b/BrW (for clearance parameters, CL and Q),(10) where BrW and BW represent the average brain weight and body weight of each species, respectively, and a and b are the coefficient and exponent of the allometric relationship, respectively.
The GOF plots of the final PK model are shown in Figure 3 The final parameter estimates from the overall PK model, and the precision of parameter estimates assessed by the bootstrap method are shown in Table 5.

[2] = human PK parameter prediction by allometric scaling; details: 60 kg human
From the text: as §1, §2
As mentioned in Section 2.4, predicted human (with the body weight of 60 kg) PK parameter values were obtained using the simple and BrW-corrected (the best fit) allometric relationships and the final estimates for allometric coefficient and exponent in overall PK models.

[3] = brain weight-corrected, estimate
[4] = brain weight-corrected allometry

**Q.** Which results are given for `COc1cc(F)c(C(C)C)cc1C1=C(CN2C(=O)O[C@H](c3cc(C(F)(F)F)cc(C(F)(F)F)c3)[C@@H]2C)CC(C)(C)CC1` [CKD519]?
**A.** θ5 Coefficient for Q ([1]; brain weight-corrected, Q = θ5 × WT^θ6/BrW, estimate): 0.846; θ3 Coefficient for Vc [1, 3]: 0.0735; θ7 Coefficient for Vp [1, 3]: 0.813; α Scale parameter of WB [1, 3]: 4.51; β Shape parameter of WB [1, 3]: 3.11; θ6 Exponent of Q [1, 3]: 2.04; ωCL Interindividual variability of CL [1, 3]: 25.9%; ωQ Interindividual variability of Q [1, 3]: 60.8%; ωα Interindividual variability of α [1, 3]: 27.0%; ωβ Interindividual variability of β [1, 3]: 24.0%; θ5 Coefficient for Q ([1]; simple allometry, Q = θ5 × WT^θ6, estimate): 0.0549; θ3 Coefficient for Vc ([1]; simple allometry, estimate): 0.0755; θ7 Coefficient for Vp ([1]; simple allometry, estimate): 0.829; α Scale parameter of WB ([1]; simple allometry, estimate): 4.50; β Shape parameter of WB ([1]; simple allometry, estimate): 3.01; θ6 Exponent of Q ([1]; simple allometry, estimate): 0.670; ωCL Interindividual variability of CL ([1]; simple allometry, estimate): 42.8%; ωQ Interindividual variability of Q ([1]; simple allometry, estimate): 23.9%; ωα Interindividual variability of α ([1]; simple allometry, estimate): 27.1%; ωβ Interindividual variability of β ([1]; simple allometry, estimate): 65.7%; CL, predicted human [2, 4]: 0.777 L/h; F 50, predicted human [2, 4]: 10.6; F max, predicted human [2, 4]: 0.192; Q, predicted human [2, 4]: 2.39 L/h; Vc, predicted human [2, 4]: 4.41 L; Vp, predicted human [2, 4]: 48.8 L; α, predicted human [2, 4]: 4.51; β, predicted human [2, 4]: 3.11; CL, predicted human ([2]; simple allometry): 0.264 L/h; F 50, predicted human ([2]; simple allometry): 10.6; F max, predicted human ([2]; simple allometry): 0.192; Q, predicted human ([2]; simple allometry): 1.17 L/h; Vc, predicted human ([2]; simple allometry): 3.29 L; Vp, predicted human ([2]; simple allometry): 49.7 L; α, predicted human ([2]; simple allometry): 4.51; β, predicted human ([2]; simple allometry): 3.11
